Legend:
[1] = target: T1, pseudokinase His-MLKL-1 (Homo sapiens, UniProt Q8NB16); experiment: Second harmonic generation (SHG) conformational assay, MLKL pseudokinase domain; conditions: 10 μM compound; MLKL construct not given
T1 construct: sub-cloning residues 191 to 471 of the pseudokinase domain of human MLKL cDNA; made in house; host or cells: Escherichia coli BL21 (DE3)
T1 sequence (Q8NB16 191-471): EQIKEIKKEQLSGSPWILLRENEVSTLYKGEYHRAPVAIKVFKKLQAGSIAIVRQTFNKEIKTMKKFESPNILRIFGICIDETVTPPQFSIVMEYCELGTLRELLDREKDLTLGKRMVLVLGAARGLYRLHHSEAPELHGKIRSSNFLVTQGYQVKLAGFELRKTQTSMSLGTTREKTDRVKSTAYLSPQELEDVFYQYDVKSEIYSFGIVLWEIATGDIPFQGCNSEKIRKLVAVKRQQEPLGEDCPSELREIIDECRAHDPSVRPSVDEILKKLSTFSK
From the text: MLKL-1 was constructed by sub-cloning residues 191 to 471 of the pseudokinase domain of human MLKL cDNA into a pET15b vector with a thrombin cleavable N-terminal six histidine fusion tag (His-MLKL-1). MLKL-2 had the same protein boundaries and fusion tag system as MLKL-1 but the dual mutations E366A and K367A were introduced using site directed mutagenesis and was expressed in the same vector (His-MLKL-2). These residues were identified as having high surface entropy and were mutated to alanine to improve crystal packing.
The labeling reaction was performed according to manufacturer’s instructions. […]
Experiments were performed on a Biodesy Delta System. […] The fundamental is directed to an arrangement of prisms integrated with the custom, glass-bottomed Biodesy Delta Read Plates, where it undergoes total internal reflection (TIR) to generate the evanescent field at the glass-lipid bilayer interface. […] The fundamental light is filtered out leaving only the SH light which is detected by a photomultiplier tube and processed with custom electronics. […] Ligand injection into the read plate is accomplished with an on-board 8-channel MEMS-based electronic pipetting system, enabling high speed and accuracy. […]
In addition, all experiments included a control buffer injection that was used to determine the significant threshold for SHG intensity change and was calculated in a similar manner. […]

[2] = target: T2, full length MLKL (Homo sapiens, UniProt Q8NB16); experiment: KINOMEscan ATP-competitive probe displacement (competition binding) assay, MLKL; conditions: average of duplicates
T2 construct: purchased DiscoverX (KINOMEscan service); host or cells: HEK-293
T2 sequence (Q8NB16 1-471): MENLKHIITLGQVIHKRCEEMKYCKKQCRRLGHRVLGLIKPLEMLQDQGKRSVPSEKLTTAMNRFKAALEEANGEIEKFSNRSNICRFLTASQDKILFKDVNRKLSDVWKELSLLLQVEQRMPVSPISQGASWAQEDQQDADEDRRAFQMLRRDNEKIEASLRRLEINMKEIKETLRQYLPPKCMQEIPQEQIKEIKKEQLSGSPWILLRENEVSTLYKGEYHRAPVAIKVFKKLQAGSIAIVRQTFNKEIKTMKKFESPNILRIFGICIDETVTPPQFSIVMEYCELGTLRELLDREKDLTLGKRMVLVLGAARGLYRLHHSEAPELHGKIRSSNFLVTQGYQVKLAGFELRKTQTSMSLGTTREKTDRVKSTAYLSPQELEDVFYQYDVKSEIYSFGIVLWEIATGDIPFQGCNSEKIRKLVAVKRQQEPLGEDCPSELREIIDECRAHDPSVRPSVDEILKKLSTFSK
Description: Compound binding constants (KDs) were determined at DiscoverX using their KINOMEscan assay platform. […] Briefly, full length MLKL was expressed in HEK-293 cells as a fusion with an NFκB DNA binding domain and subsequently tagged with a qPCR detection amplicon via interaction with NFκB. […] Twenty microliters of binding reactions were carried out in 384-well polypropylene plates for 1 hour at room temperature. Beads were subsequently washed and resuspended in elution buffer for 30 minutes at room temperature with shaking. The concentration of MLKL in the eluates was measured by qPCR and compound binding constants were calculated using a standard dose-response curve.
(§1) A similar approach was used to measure binding affinities for RIPK1 and RIPK3 kinase domains.

[3] = target: T3, RIPK1 kinase domain (Homo sapiens, UniProt Q13546); experiment: ATP-competitive probe displacement assay, RIPK1; format: binding; conditions: average of duplicates
T3 construct: purchased DiscoverX
T3 sequence (Q13546 17-289 limits assumed): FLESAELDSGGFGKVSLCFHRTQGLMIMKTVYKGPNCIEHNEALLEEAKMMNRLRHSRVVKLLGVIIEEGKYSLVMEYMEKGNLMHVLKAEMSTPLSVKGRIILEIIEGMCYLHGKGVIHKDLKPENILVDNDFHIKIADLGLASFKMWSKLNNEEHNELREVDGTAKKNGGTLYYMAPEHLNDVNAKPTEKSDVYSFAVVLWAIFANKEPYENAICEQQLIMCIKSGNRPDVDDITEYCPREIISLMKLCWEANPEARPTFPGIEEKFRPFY
Description: (§2) Compound binding constants (KDs) were determined at DiscoverX using their KINOMEscan assay platform. This competition binding assay was previously described in Karaman et al. (2008)[18]. Briefly, full length MLKL was expressed in HEK-293 cells as a fusion with an NFκB DNA binding domain and subsequently tagged with a qPCR detection amplicon via interaction with NFκB. […] Twenty microliters of binding reactions were carried out in 384-well polypropylene plates for 1 hour at room temperature. Beads were subsequently washed and resuspended in elution buffer for 30 minutes at room temperature with shaking. The concentration of MLKL in the eluates was measured by qPCR and compound binding constants were calculated using a standard dose-response curve.
as §1

[4] = target: T4, RIPK3 kinase domain (Homo sapiens, UniProt Q9Y572); experiment: ATP-competitive probe displacement assay, RIPK3; format: binding; conditions: average of duplicates
T4 construct: purchased DiscoverX
T4 sequence (Q9Y572 21-287 limits assumed): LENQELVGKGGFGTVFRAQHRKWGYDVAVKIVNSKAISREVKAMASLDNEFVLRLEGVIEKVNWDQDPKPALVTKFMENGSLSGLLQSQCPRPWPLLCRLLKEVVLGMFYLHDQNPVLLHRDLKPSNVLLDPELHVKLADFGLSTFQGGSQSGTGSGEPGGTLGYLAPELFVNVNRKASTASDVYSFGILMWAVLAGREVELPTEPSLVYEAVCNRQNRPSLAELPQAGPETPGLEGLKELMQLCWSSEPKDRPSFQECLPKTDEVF
Description: as §2, §1

## Nc1nccnc1C(=O)O[C@H](C(=O)Nc1ccc(F)cc1)c1ccccc1 [cpd 5]
[1]
  change in SHG intensity (in words): no change from baseline
[2]
  Kd: 7.6 µM
[3]
  Kd: > 30 µM
[4]
  Kd: > 30 µM
